Assay: Brain pharmacokinetics of tianeptine and its 5-carbon metabolite (7i) in mice
Procedure: Experimental Protocol for PK Studies. […] Brain samples were collected from three mice at 0.08, 0.25, 0.5, 1, 2, 4, 8 and 24 h, homogenized using ice-cold phosphate buffer saline (pH 7.4), and stored below -70° C. until analysis. Total homogenate volume was three times the tissue weight. All samples were processed for analysis by protein precipitation using acetonitrile (ACN) and analyzed with a fit-for-purpose LC/MS/MS method (LLOQ - 1.01 ng/mL in brain). Pharmacokinetic parameters were calculated using the non-compartmental analysis tool of Phoenix WinNonlin® (Version 6.3).

[1] = C57BL/6 mice, single injection of tianeptine 30 mg/kg i.p.
[2] = mice, after tianeptine 30 mg/kg i.p., in words

CN1c2ccccc2C(NCCCCC(=O)O)c2ccc(Cl)cc2S1(=O)=O.Cl (stereo not drawn) [Compound 7i]
AUClast [1]: 5963 ng·h/g
CL [1]: 78 mL/min/kg
Tmax [1]: 0.5 h
T½ [1]: 2.33 h
brain exposure (as measured by AUC) compared to the parent compound (tianeptine) [2]: greater brain exposure
half-life compared to the parent compound (tianeptine) [2]: significantly longer half-life

Source: patent US20230365519A1, “CARBOXYLIC DIARYLTHIAZEPINEAMINES AND USES THEREOF” (Kures, Inc., priority 2020, published 2023)
